Experimental data as given in ChEMBL document CHEMBL4251578, “Design, synthesis and biological evaluation of novel 2-aminobenzamides containing dithiocarbamate moiety as histone deacetylase inhibitors and potent antitumor agents” (Eur J Med Chem, 2018).

Columns and labels:
[1] = system: SMMC-7721; assay: Induction of apoptosis in human SMMC7721 cells assessed as late apoptotic cells at 1 umol/L after 72 hrs by Alexa Fluor 488 Annexin/propidium iodide staining-based flow cytometric analysis (reference value: 0.29%); format: functional
[2] = system: SMMC-7721; assay: Induction of apoptosis in human SMMC7721 cells after 72 hrs by Alexa Fluor 488 Annexin/propidium iodide staining-based flow cytometric analysis; format: functional, cell-based
[3] = system: SMMC-7721; assay: Cell cycle arrest in human SMMC7721 cells assessed as accumulation of cells at G0/G1 phase at 0.125 umol/L after 72 hrs by propidium iodide staining-based flow cytometric analysis (reference value: 80.65%); format: functional
[4] = system: SMMC-7721; assay: Antiproliferative activity against human SMMC7721 cells after 72 hrs by CCK-8 assay; format: functional, cell-based; conditions: for IC50: SMMC-7721, 72 h
[5] = system: HeLa; assay: Antiproliferative activity against human HeLa cells after 72 hrs by CCK-8 assay; format: functional, cell-based
[6] = system: SMMC-7721; assay: Induction of apoptosis in human SMMC7721 cells assessed as necrotic cells at 0.125 umol/L after 72 hrs by Alexa Fluor 488 Annexin/propidium iodide staining-based flow cytometric analysis (reference value: 2.48%); format: functional
[7] = system: SMMC-7721; assay: Cell cycle arrest in human SMMC7721 cells assessed as accumulation of cells at […] phase after 72 hrs by propidium iodide staining-based flow cytometric analysis; format: functional
[8] = system: MGC-803; assay: Antiproliferative activity against human MGC803 cells after 72 hrs by CCK-8 assay; format: functional, cell-based; conditions: for IC50: MGC-803, 72 h
[9] = system: A-375; assay: Antiproliferative activity against human A375 cells at 8 uM after 72 hrs by CCK-8 assay relative to control; format: functional; conditions: A-375, 72 h
[10] = system: SMMC-7721; assay: Cell cycle arrest in human SMMC7721 cells assessed as accumulation of cells at S phase at 0.125 umol/L after 72 hrs by propidium iodide staining-based flow cytometric analysis (reference value: 5.21%); format: functional
[11] = system: SMMC-7721; assay: Cell cycle arrest in human SMMC7721 cells assessed as accumulation of cells at G0/G1 phase at 4 umol/L after 72 hrs by propidium iodide staining-based flow cytometric analysis (reference value: 80.65%); format: functional
[12] = system: HeLa; assay: Antiproliferative activity against human HeLa cells at 8 uM after 72 hrs by CCK-8 assay relative to control; format: functional
[13] = target: Histone deacetylase 2 (Homo sapiens, UniProt Q92769); assay: Inhibition of human recombinant HDAC2 using Fluor de Lys-Green as substrate preincubated for 5 mins followed by substrate addition and measured after 1 hr by fluorescence assay
Sequence of Histone deacetylase 2 (Q92769 whole entry): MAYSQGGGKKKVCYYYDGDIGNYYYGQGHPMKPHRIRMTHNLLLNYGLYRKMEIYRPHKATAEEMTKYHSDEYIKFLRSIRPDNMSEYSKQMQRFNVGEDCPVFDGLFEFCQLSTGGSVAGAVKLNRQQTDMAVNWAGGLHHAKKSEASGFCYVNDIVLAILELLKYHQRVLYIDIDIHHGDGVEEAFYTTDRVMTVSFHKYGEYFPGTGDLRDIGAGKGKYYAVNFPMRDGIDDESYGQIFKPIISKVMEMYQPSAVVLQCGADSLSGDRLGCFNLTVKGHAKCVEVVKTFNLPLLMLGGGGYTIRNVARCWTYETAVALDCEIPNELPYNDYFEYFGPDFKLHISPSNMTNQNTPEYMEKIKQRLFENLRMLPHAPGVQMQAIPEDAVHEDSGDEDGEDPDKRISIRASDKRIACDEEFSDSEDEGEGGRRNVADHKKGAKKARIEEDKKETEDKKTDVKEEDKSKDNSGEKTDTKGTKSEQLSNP

[14] = system: MGC-803; assay: Antiproliferative activity against human MGC803 cells at 2 uM after 72 hrs by CCK-8 assay relative to control; format: functional; conditions: MGC-803, 72 h
[15] = target: Histone deacetylase; assay: Inhibition of HDAC in human HeLa cell extract using Fluor de Lys-Green as substrate preincubated for 5 mins followed by substrate addition and measured after 1 hr by fluorescence assay; format: protein assay
[16] = system: SMMC-7721; assay: Induction of apoptosis in human SMMC7721 cells assessed as necrotic cells at 4 umol/L after 72 hrs by Alexa Fluor 488 Annexin/propidium iodide staining-based flow cytometric analysis (reference value: 2.48%); format: functional
[17] = system: SMMC-7721; assay: Cell cycle arrest in human SMMC7721 cells assessed as accumulation of cells at G2/M phase at 0.125 umol/L after 72 hrs by propidium iodide staining-based flow cytometric analysis (reference value: 14.14%); format: functional
[18] = system: SMMC-7721; assay: Induction of apoptosis in human SMMC7721 cells assessed as necrotic cells at 1 umol/L after 72 hrs by Alexa Fluor 488 Annexin/propidium iodide staining-based flow cytometric analysis (reference value: 2.48%); format: functional

| SMILES | Activity [1] | Activity [2] | Activity [3] | Activity ([3]; record 2) | IC50 [4] | IC50 [5] | Activity [6] | Activity [7] | IC50 [8] | inhibition at 8 µM [9] | Activity [10] | Activity [11] | inhibition at 8 µM [12] | IC50 [13] | inhibition at 2 µM [14] | IC50 [15] | Activity [16] | Activity [17] | Activity [18] | other results |
| --- | --- | --- | --- | --- | --- | --- | --- | --- | --- | --- | --- | --- | --- | --- | --- | --- | --- | --- | --- | --- |
| CCN(Cc1ccncc1)C(=S)SCc1ccc(C(=O)Nc2ccccc2N)cc1 | 14.06% | Dose-dependent effect | Dose-dependent effect | 81.27% | 1210 nM | 1040 nM | 12.93% | Dose-dependent effect | 1370 nM | 86.2% | 6.81% | 41.87% | 77.7% | 900 nM | 71.6% | 1800 nM | 1.27% | 11.92% | 13.18% |  |
| Nc1ccccc1NC(=O)c1ccc(CSC(=S)N2CCc3ccccc3C2)cc1 | 12.44% | Dose-dependent effect | Dose-dependent effect | 78.41% | 1200 nM | 1460 nM | 3.49% | Dose-dependent effect | 940 nM | 86.7% | 5.7% | 64.06% | 76.3% | 3230 nM | 80.9% |  | 1.94% | 15.89% | 2.9% |  |
| Nc1ccccc1NC(=O)c1ccc(CSC(=S)N2CCN(c3ccncc3)CC2)cc1 | 11.06% | Dose-dependent effect | Dose-dependent effect | 80.71% | 1340 nM | 790 nM | 11.27% |  | 1580 nM | 90.7% | 7.28% | 85.19% | 77.4% | 470 nM | 64.8% | 720 nM | 3.17% | 12.01% | 5.01% | Activity [4]: Dose-dependent effect; Activity [5]: Dose-dependent effect; Activity [8]: Dose-dependent effect |
